Values of other authors in US6322816A, “Fast-acting analgesic” (priority 1997, dated 2001).
Where a name gives a salt, the structure may show the parent alone.

Assays:
[1] = versus free acid; in words, background
[2] = in words, DE-C 36 39 038
[3] = in words, background

SMILES: CC(C)Cc1ccc(C(C)C(=O)O)cc1 (racemic) [lysine salt]
- maximum blood level Cmax compared with the free acid [1]: distinctly faster and higher maximum blood level Cmax

SMILES: CC(C)Cc1ccc([C@H](C)C(=O)O)cc1 [S(+) isomer, S(+)-ibuprofen]
- onset of action [2]: faster onset of action

SMILES: CC(C)Cc1ccc(C(C)C(=O)O)cc1 (racemic) [ibuprofen, 2-(4-isobutylphenyl)propionic acid]
- solubility [3]: low solubility

SMILES: CC(C)Cc1ccc(C(C)C(=O)O)cc1 (racemic) [sodium ibuprofenate]
- hygroscopicity [3]: hygroscopic
